# In patent US20240108737A1, “ANTI-INFECTIVE BICYCLIC PEPTIDE LIGANDS” (priority 2021, published 2024):
# *1 amine or outer side, *2 acyl side, *3 side chain or, on linkers, in order; H or OH if unused. Where a SMILES comes first, the peptide text is derived from it. Bridges are numbered along the chain shown (N, C = ends). Roman numbers before positions name the chains, in order. [ ]: non-standard residue; d: D form. X1 = O=C(CCOCCOCCOCCOCCOCCOCCOCCOCCOCCOCCOCCOCCOCCOCCOCCOCCOCCOCCOCCOCCOCCOCCOCCOCCn1cc(CCC(=O)[*:2])nn1)[*:1]; X3 = O=C(CCc1cn(CCOCCOCCOCCOCCOCCOCCOCCOCCOCCOCCOCCOCCOCCOCCOCCOCCOCCOCCOCCOCCOCCOCCOCCOCCC(=O)[*:2])nn1)[*:1]; TATB = O=C(C[*:1])N1CN(C(=O)C[*:2])CN(C(=O)C[*:3])C1; X2 = C(c1nc(C[*:2])nc(C[*:3])n1)[*:1]; hArg = N=C(N)NCCCC[C@H](N)C(=O)O; tBuAla = CC(C)(C)C[C@H](N)C(=O)O; Agb = N=C(N)NCC[C@H](N)C(=O)O
# Columns and labels:
# [1] = test system: SARS-CoV-2; conditions: hamster, in vivo
# [2] = test system: SARS-CoV-2; conditions: 3 h
# [3] = test system: SARS-CoV-2 pseudotyped HIV-1 virions, B.1.351 (Beta)
# [4] = test system: SARS-CoV-2 pseudotyped HIV-1 virions, P.1 (Gamma)
# [5] = test system: SARS-CoV-2 pseudotyped HIV-1 virions, B.1.617.2 (Delta)
# [6] = test system: SARS-CoV-2 pseudotyped HIV-1 virions, B.1.427 (California)
# [7] = test system: SARS-CoV-2 pseudotyped HIV-1 virions; conditions: 72 h
# [8] = test system: SARS-CoV-2 pseudotyped HIV-1 virions, B.1.1.7 (Alpha)
compound,measurement,setting,value
CC[C@H](C)[C@@H]1NC(=O)[C@H](CCSC)NC(=O)[C@@H]2CSCC(=O)N3CN(CN(C3)C(=O)CSC[C@@H](C(=O)N[C@@H](CCCCNC(=O)CCOCCOCCOCCOCCOCCOCCOCCOCCOCCOCCOCCOCCOCCOCCOCCOCCOCCOCCOCCOCCOCCOCCOCCOCCn3cc(CCC(=O)NCCCC[C@H](NC(=O)[C@@H]4CSCc5nc6nc(n5)CSC[C@H](NC(C)=O)C(=O)N5CCC[C@H]5C(=O)N[C@@H](Cc5ccc(O)cc5)C(=O)N[C@@H](C(C)C)C(=O)N[C@@H](C)C(=O)NCC(=O)N[C@@H](CCNC(=N)N)C(=O)N[C@H](C)C(=O)N[C@@H]([C@@H](C)O)C(=O)N[C@@H](CSC6)C(=O)N[C@@H](CC(C)C)C(=O)N[C@@H](CC(C)(C)C)C(=O)N4)C(N)=O)nn3)C(N)=O)NC(=O)[C@H](C)NC1=O)C(=O)CSC[C@H](NC(C)=O)C(=O)N[C@@H]([C@@H](C)CC)C(=O)N1CCC[C@H]1C(=O)N[C@@H](CC(C)C)C(=O)N[C@@H](CC(=O)O)C(=O)N[C@@H](Cc1c[nH]c3ccccc13)C(=O)N[C@@H]([C@@H](C)O)C(=O)N2 [BCY18656],viral load of SARS-CoV-2,[1],reduces the viral load
same,IC50,[2],0.314 nM
CC(=O)N[C@H]1CSCC(=O)N2CN3CN(C2)C(=O)CSC[C@H](NC(=O)[C@H](C(C)C)NC(=O)[C@@H]2CCCN2C(=O)[C@H](CC(N)=O)NC(=O)[C@H](CC(=O)O)NC(=O)[C@@H]2CCCN2C(=O)[C@H](CC(N)=O)NC(=O)[C@H](C)NC1=O)C(=O)N[C@@H](CCCNC(=N)N)C(=O)N[C@@H](Cc1ccccc1)C(=O)N[C@@H](Cc1ccc(O)cc1)C(=O)N[C@H](C(=O)N[C@@H](CCCCNC(=O)CCOCCOCCOCCOCCOCCOCCOCCOCCOCCOCCOCCOCCOCCOCCOCCOCCOCCOCCOCCOCCOCCOCCOCCOCCn1cc(CCC(=O)NCCCC[C@H](NC(=O)[C@@H]2CSCc4nc5nc(n4)CSC[C@H](NC(C)=O)C(=O)N4CCC[C@H]4C(=O)N[C@@H](Cc4ccc(O)cc4)C(=O)N[C@@H](C(C)C)C(=O)N[C@@H](C)C(=O)NCC(=O)N[C@@H](CCCCNC(=N)N)C(=O)N[C@H](C)C(=O)N[C@@H]([C@@H](C)O)C(=O)N[C@@H](CSC5)C(=O)N[C@@H](CC(C)C)C(=O)N[C@@H](CC(C)(C)C)C(=O)N2)C(N)=O)nn1)C(N)=O)CSCC3=O [BCY18786] (I: Ac-CANPDNPVCRFYCK-NH2 / II: Ac-CPYVAG[hArg][dA]TCL[tBuAla]CK-NH2; linker I:1-I:9-I:13 via TATB; linker I:14-II:14 via X1; linker II:1-II:10-II:13 via X2),IC50,[3],272 nM
same,IC50,[4],140 nM
same,IC50,[5],437 nM
same,IC50,[6],93 nM
same,IC50,[7],0.2 nM
same,IC50,[8],6 nM
same,IC50,[2],246 nM
"CC(=O)N[C@H]1CSCc2nc3nc(n2)CSC[C@H](NC(=O)[C@H]([C@@H](C)O)NC(=O)[C@@H](C)NC(=O)[C@H](CCNC(=N)N)NC(=O)CNC(=O)[C@H](C)NC(=O)[C@H](C(C)C)NC(=O)[C@H](Cc2ccc(O)cc2)NC(=O)[C@@H]2CCCN2C1=O)C(=O)N[C@@H](CC(C)C)C(=O)N[C@@H](CC(C)(C)C)C(=O)N[C@H](C(=O)N[C@@H](CCCCNC(=O)CCOCCOCCOCCOCCOCCOCCOCCOCCOCCOCCOCCOCCOCCOCCOCCOCCOCCOCCOCCOCCOCCOCCOCCOCCn1cc(CCC(=O)NCCCC[C@H](NC(=O)[C@@H]2CSCc4nc5nc(n4)CSC[C@H](NC(C)=O)C(=O)N4CCC[C@H]4C(=O)N[C@@H](Cc4ccc(O)cc4)C(=O)N[C@@H](C(C)C)C(=O)N[C@@H](C)C(=O)NCC(=O)N[C@@H](CCNC(=N)N)C(=O)N[C@H](C)C(=O)N[C@@H]([C@@H](C)O)C(=O)N[C@@H](CSC5)C(=O)N[C@@H](CC(C)C)C(=O)N[C@@H](CC(C)(C)C)C(=O)N2)C(N)=O)nn1)C(N)=O)CSC3 [BCY17196] (I: Ac-CPYVAG[Agb][dA]TCL[tBuAla]CK-NH2 / II: Ac-CPYVAG[Agb][dA]TCL[tBuAla]CK-NH2; linker I:1-I:10-I:13, II:1-II:10-II:13 via X2; linker I:14-II:14 via X1)",IC50,[7],15300 nM
CC(=O)N[C@@H](C)C(=O)N[C@H]1CSCC(=O)N2CN3CN(C2)C(=O)CSC[C@H](NC(=O)[C@H](C(C)C)NC(=O)[C@@H]2CCCN2C(=O)[C@H](CC(N)=O)NC(=O)[C@H](CC(=O)O)NC(=O)[C@@H]2CCCN2C(=O)[C@H](CO)NC(=O)[C@H](C)NC1=O)C(=O)N[C@@H](CCCNC(=N)N)C(=O)N[C@@H](Cc1ccccc1)C(=O)N[C@@H](Cc1ccc(O)cc1)C(=O)N[C@H](C(=O)N[C@@H](C)C(=O)N[C@@H](CCCCNC(=O)CCc1cn(CCOCCOCCOCCOCCOCCOCCOCCOCCOCCOCCOCCOCCOCCOCCOCCOCCOCCOCCOCCOCCOCCOCCOCCOCCC(=O)NCCCC[C@H](NC(=O)[C@@H]2CSCc4nc5nc(n4)CSC[C@H](NC(C)=O)C(=O)N4CCC[C@H]4C(=O)N[C@@H](Cc4ccc(O)cc4)C(=O)N[C@@H](C(C)C)C(=O)N[C@@H](C)C(=O)NCC(=O)N[C@@H](CCNC(=N)N)C(=O)N[C@H](C)C(=O)N[C@@H]([C@@H](C)O)C(=O)N[C@@H](CSC5)C(=O)N[C@@H](CC(C)C)C(=O)N[C@@H](CC(C)(C)C)C(=O)N2)C(N)=O)nn1)C(N)=O)CSCC3=O [BCY17191] (I: Ac-ACASPDNPVCRFYCAK-NH2 / II: Ac-CPYVAG[Agb][dA]TCL[tBuAla]CK-NH2; linker I:2-I:10-I:14 via TATB; linker I:16-II:14 via X3; linker II:1-II:10-II:13 via X2),IC50,[7],10.6 nM
